Measurements taken from ChEMBL document CHEMBL3739339, “Discovery of a series of 2-(pyridinyl)pyrimidines as potent antagonists of GPR40” (Medchemcomm, 2015).
In brackets after ≈: the same amount, converted by molar mass. Activity calls are given as the source filed them. The calls are words filed in the database; no cut-off is given here.

Legend:
[1] = Lipophilicity, log D of the compound at pH 7.4; assay type: physicochemical; details: buffer
[2] = target: Free fatty acid receptor 1 (Homo sapiens, UniProt O14842); test: Antagonist activity against human GPR40 expressed in HEK293s FLPIN cells assessed as elaidic acid stimulated IP1 release after 2 hrs by TR-FRET analysis; assay type: functional, cell-based
Rattus norvegicus [3] = organism: Rattus norvegicus; test: Unbound clearance in rat; assay type: ADME, organism-based; details: in vivo
Hepatocyte = test: Intrinsic clearance in rat hepatocytes measured per 10^6 cells; assay type: ADME, cell-based
[4] = Fraction unbound in human plasma; assay type: ADME, cell-free
[5] = Oral absorption in rat; assay type: ADME, organism-based; details: in vivo, read-out: Fabs
[6] = Clearance in rat; assay type: ADME, organism-based; details: in vivo
[7] = Fraction unbound in rat plasma; assay type: ADME, cell-free
Liver microsome = test: Intrinsic clearance in human liver microsomes […]; assay type: ADME
[8] = Volume of distribution at steady state in rat; assay type: ADME, organism-based; details: in vivo, read-out: Vdss
[9] = target: Free fatty acid receptor 1 (Rattus norvegicus, UniProt Q8K3T4); test: Antagonist activity against rat GPR40
[10] = Solubility of compound; assay type: physicochemical
[11] = Oral bioavailability in rat; assay type: ADME, organism-based; details: in vivo
Rattus norvegicus [12] = test: Inhibition of NEFA-driven plasma insulin level in male Zucker rat pretreated with beta3-agonist for 30 mins at 80 mg/kg measured 4 hrs post dosing by ELISA; assay type: functional
Rattus norvegicus [13] = test: Effect on plasma NEFA level in male Zucker rat at 80 mg/kg measured 4 hrs by ELISA assay relative to vehicle control; assay type: ADME, organism-based; details: in vivo
[14] = target: T1, Free fatty acid receptor 2 (Homo sapiens) (UniProt O15552); test: Antagonist activity at GPR43 (unkown origin)
T1 sequence (whole entry): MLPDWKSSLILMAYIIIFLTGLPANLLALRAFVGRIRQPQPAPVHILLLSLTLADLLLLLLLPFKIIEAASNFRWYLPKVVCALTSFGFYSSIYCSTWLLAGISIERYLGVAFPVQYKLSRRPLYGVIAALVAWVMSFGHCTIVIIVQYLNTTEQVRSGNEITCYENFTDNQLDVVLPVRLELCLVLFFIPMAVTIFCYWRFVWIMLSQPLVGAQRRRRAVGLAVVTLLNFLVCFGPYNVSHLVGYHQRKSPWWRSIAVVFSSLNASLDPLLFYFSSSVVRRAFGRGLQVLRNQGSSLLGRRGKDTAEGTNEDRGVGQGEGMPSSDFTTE

Rattus norvegicus [15] = test: Effect on plasma insulin level in male Zucker rat at 80 mg/kg measured after 4 hrs by ELISA relative to vehicle control; assay type: ADME, organism-based; details: in vivo
[16] = target: Free fatty acid receptor 1 (Mus musculus) (UniProt Q76JU9); test: Antagonist activity against mouse GPR40
Sequence of Free fatty acid receptor 1 (Mus musculus) (Q76JU9 whole entry): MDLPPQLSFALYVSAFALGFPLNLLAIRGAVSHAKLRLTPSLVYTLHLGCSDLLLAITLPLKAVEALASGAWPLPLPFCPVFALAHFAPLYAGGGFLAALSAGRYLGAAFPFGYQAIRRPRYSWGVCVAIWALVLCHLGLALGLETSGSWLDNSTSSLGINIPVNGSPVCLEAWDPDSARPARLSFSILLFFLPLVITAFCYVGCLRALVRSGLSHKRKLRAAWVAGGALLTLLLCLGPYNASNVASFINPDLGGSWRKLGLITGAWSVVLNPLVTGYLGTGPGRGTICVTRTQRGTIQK

Sequence of Free fatty acid receptor 1 (Homo sapiens, UniProt O14842) (O14842 whole entry): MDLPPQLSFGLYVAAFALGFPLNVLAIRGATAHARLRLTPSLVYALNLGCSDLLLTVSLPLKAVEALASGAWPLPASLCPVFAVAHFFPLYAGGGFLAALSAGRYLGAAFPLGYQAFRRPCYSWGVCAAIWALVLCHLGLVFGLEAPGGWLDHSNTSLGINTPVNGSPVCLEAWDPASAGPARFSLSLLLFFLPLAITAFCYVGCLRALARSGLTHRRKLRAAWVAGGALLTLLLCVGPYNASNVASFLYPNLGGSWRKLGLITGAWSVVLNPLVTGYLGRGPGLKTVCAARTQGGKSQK
Sequence of Free fatty acid receptor 1 (Rattus norvegicus, UniProt Q8K3T4) (Q8K3T4 whole entry): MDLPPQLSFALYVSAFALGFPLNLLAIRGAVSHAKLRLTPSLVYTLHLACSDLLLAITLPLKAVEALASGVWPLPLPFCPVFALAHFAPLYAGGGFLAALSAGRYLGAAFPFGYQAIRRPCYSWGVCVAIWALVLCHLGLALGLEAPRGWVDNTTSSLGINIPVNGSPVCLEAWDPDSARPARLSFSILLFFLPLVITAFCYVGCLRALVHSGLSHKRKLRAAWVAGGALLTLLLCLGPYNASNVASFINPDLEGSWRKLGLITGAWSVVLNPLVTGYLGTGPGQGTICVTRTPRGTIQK

`OC1CN(c2cc(COc3ccc(F)c(F)c3F)nc(-c3ccccn3)n2)C1` gave a logD [1] of 2.8 and an IC50 [2] of 3160 nM.
Compound `Fc1ccc(OCc2cc(OCC(F)(F)F)nc(-c3ccccn3)n2)c(F)c1F` has a logD [1] greater than 4.9 and an IC50 [2] of 7.94 nM.
In the case of `Cc1cc(COc2ccccc2S(C)(=O)=O)nc(-c2ccccn2)n1`, the logD [1] is reported as 1.5 and the IC50 [2] is reported as greater than 39800 nM.
Compound `Fc1ccc(OCc2cc(N3CC4(CCO4)C3)nc(-c3ccccn3)n2)c(F)c1F` has a logD [1] of 3.3 and an IC50 [2] of 501 nM.
For `Cc1cc(COc2cccc(C#N)c2)nc(-c2ccccn2)n1`, the logD [1] was 2.7 and the IC50 [2] was 2510 nM.
Work on `Cc1cc(COc2cc(F)c(F)c(F)c2)nc(-c2ccccn2)n1` yielded a logD [1] of 3.4 and an IC50 [2] of 398 nM.
`COc1cccc(OCc2cc(C)nc(-c3ccccn3)n2)c1` gave a logD [1] of 2.9 and an IC50 [2] of 2000 nM.
Compound `COc1ccccc1OCc1cc(C)nc(-c2ccccn2)n1` has a logD [1] of 2.5 and an IC50 [2] of 2000 nM.
`Cc1cc(COc2ccc(F)c(F)c2F)nc(-c2ccccn2)n1` gave a CL free (Rattus norvegicus [3]) of 380 mL/min/kg, a CLint (Hepatocyte) of 17 µL/min/1e6 cells and a fraction unbound [4] of 0.03. It also gave a Fa [5] of 59%, a clearance [6] of 24 mL/min/kg and a fraction unbound [7] of 0.063. It also gave a CLint (Liver microsome) of 57 µL/min/mg, a Vd [8] of 2.3 L/kg and a logD [1] of 3.3. For the same compound, the IC50 [9] was 200 nM, the solubility [10] was 22 µM (≈ 7.29 µg/mL) and the IC50 [2] was 251 nM. For the same compound, the bioavailability [11] was 39%.
`Cc1cc(COc2cccc(S(C)(=O)=O)c2)nc(-c2ccccn2)n1` gave a logD [1] of 1.7 and an IC50 [2] greater than 39800 nM.
For `Cc1cc(N/N=C/c2ccccc2)nc(-c2ccccc2)n1`, the logD [1] was 4.3, the solubility [10] was less than 0.3 µM and the IC50 [2] was 251 nM.
`CC1(C#N)CN(c2cc(COc3ccc(F)c(F)c3F)nc(-c3ccccn3)n2)C1` showed a CL free (Rattus norvegicus [3]) of 540 mL/min/kg, a CLint (Hepatocyte) of 26 µL/min/1e6 cells and a fraction unbound [4] of 0.048. It also gave a Fa [5] of 56%, an inhibition in vivo at 80 mg/kg (Rattus norvegicus [12]) of 70% and a clearance [6] of 30 mL/min/kg. For the same compound, the fraction unbound [7] was 0.056, the CLint (Liver microsome) was 52 µL/min/mg and the Vd [8] was 3 L/kg. For the same compound, the Activity (Rattus norvegicus [13]) was “Non-toxic”, the logD [1] was 3.3 and the IC50 [9] was 63.1 nM. For the same compound, the inhibition [14] was “inactive”, the solubility [10] was 2.9 µM (≈ 1.19 µg/mL) and the Activity (Rattus norvegicus [15]) was “Non-toxic”. The inhibition [16] was “Active”, the IC50 [2] was 158 nM and the bioavailability [11] was 32%.
For `CC(=O)Nc1ccccc1OCc1cc(C)nc(-c2ccccn2)n1`, the logD [1] was 1.6 and the IC50 [2] was greater than 39800 nM.
`COC1(COc2cc(COc3ccc(F)c(F)c3F)nc(-c3ccccn3)n2)COC1` gave a logD [1] of 3.5 and an IC50 [2] of 501 nM.
Compound `Cc1cc(COc2cccc(F)c2F)nc(-c2ccccn2)n1` has a logD [1] of 3.2 and an IC50 [2] of 398 nM.
Work on `CN(C)c1cc(COc2cccc(F)c2)nc(-c2ccccn2)n1` yielded a logD [1] of 3.6 and an IC50 [2] of 1580 nM.
With `Cc1cc(COc2ccc(S(C)(=O)=O)cc2)nc(-c2ccccn2)n1` the logD [1] was 1.5 and the IC50 [2] was greater than 39800 nM.
Work on `N#CCC1(COc2cc(COc3ccc(F)c(F)c3F)nc(-c3ccccn3)n2)COC1` yielded a logD [1] of 3.3 and an IC50 [2] of 398 nM.
Compound `Cc1cc(COc2ccc(F)c(F)c2)nc(-c2ccccn2)n1` has a logD [1] of 3.2 and an IC50 [2] of 501 nM.
With `CC(C)Nc1cc(COc2cccc(F)c2)nc(-c2ccccn2)n1` the logD [1] was 4.3 and the IC50 [2] was 100 nM.
`CC1(CS(C)(=O)=O)CN(c2cc(COc3ccc(F)c(F)c3F)nc(-c3ccccn3)n2)C1` showed a logD [1] of 2.9 and an IC50 [2] of 6310 nM.
Compound `Cc1cc(COc2ccc(F)cc2F)nc(-c2ccccn2)n1` has a logD [1] of 3.1 and an IC50 [2] of 398 nM.
`COc1ccc(OCc2cc(C)nc(-c3ccccn3)n2)cc1` showed a logD [1] of 2.8 and an IC50 [2] of 7940 nM.
For `Cc1cc(COc2c(F)cc(F)cc2F)nc(-c2ccccn2)n1`, the logD [1] was 3.2 and the IC50 [2] was 1260 nM.
With `Cc1cc(COc2ccccc2)nc(-c2ccccn2)n1` the logD [1] was 3.4 and the IC50 [2] was 794 nM.
In the case of `Fc1ccc(OCc2cc(OCC3(F)COC3)nc(-c3ccccn3)n2)c(F)c1F`, the CL free (Rattus norvegicus [3]) is reported as 1100 mL/min/kg, the CLint (Hepatocyte) is reported as 72 µL/min/1e6 cells and the fraction unbound [4] is reported as 0.015. For the same compound, the Fa [5] was 16%, the clearance [6] was 19 mL/min/kg and the fraction unbound [7] was 0.017. It also gave a CLint (Liver microsome) of 56 µL/min/mg, a Vd [8] of 1.4 L/kg and a logD [1] of 4. For the same compound, the IC50 [9] was 31.6 nM, the solubility [10] was 2.9 µM (≈ 1.22 µg/mL) and the bioavailability [11] was 12%.
For `Cc1cc(COc2c(F)ccc(F)c2F)nc(-c2ccccn2)n1`, the logD [1] was 3.1 and the IC50 [2] was 1580 nM.
`CC1(COc2cc(COc3ccc(F)c(F)c3F)nc(-c3ccccn3)n2)COC1` showed a logD [1] of 4 and an IC50 [2] of 79.4 nM.
Compound `Cc1cc(COc2cc(F)c(F)cc2F)nc(-c2ccccn2)n1` has a logD [1] of 3.2 and an IC50 [2] of 398 nM.
For `c1ccc(OCc2cc(N3CCOCC3)nc(-c3ccccn3)n2)cc1`, the logD [1] was 2.8 and the IC50 [2] was 631 nM.
`Cc1cc(COc2ccccc2Cl)nc(-c2ccccn2)n1` showed a logD [1] of 3.4 and an IC50 [2] of 316 nM.
Work on `Cc1cc(COc2ccccc2C#N)nc(-c2ccccn2)n1` yielded a logD [1] of 2.7 and an IC50 [2] of 10000 nM.
With `Fc1ccc(OCc2cc(OCC3COC3)nc(-c3ccccn3)n2)c(F)c1F` the logD [1] was 3.7 and the IC50 [2] was 316 nM.
`Cc1cc(COc2ccc(Cl)cc2)nc(-c2ccccn2)n1` gave a logD [1] of 3.7 and an IC50 [2] of 251 nM.
`Fc1ccc(OCc2cc(OCC3CCC3)nc(-c3ccccn3)n2)c(F)c1F` gave a logD [1] of 4.5 and an IC50 [2] of 12.6 nM.
Work on `Cc1cc(COc2cccc(F)c2)nc(-c2ccccn2)n1` yielded a logD [1] of 3.1 and an IC50 [2] of 794 nM.
`Cc1cc(COc2ccccc2F)nc(-c2ccccn2)n1` showed a logD [1] of 2.9 and an IC50 [2] of 398 nM.
`CCNc1cc(COc2cccc(F)c2)nc(-c2ccccn2)n1` showed a logD [1] of 3.9 and an IC50 [2] of 631 nM.
Compound `Cc1cc(COc2ccc(F)cc2)nc(-c2ccccn2)n1` has a logD [1] of 3 and an IC50 [2] of 631 nM.
For `Cc1cc(COc2cccc(Cl)c2)nc(-c2ccccn2)n1`, the logD [1] was 3.7 and the IC50 [2] was 398 nM.
With `CC(=O)Nc1ccc(OCc2cc(C)nc(-c3ccccn3)n2)cc1` the logD [1] was 1.9 and the IC50 [2] was greater than 39800 nM.
For `CC(=O)Nc1cccc(OCc2cc(C)nc(-c3ccccn3)n2)c1`, the logD [1] was 2.1 and the IC50 [2] was greater than 39800 nM.
Compound `Cc1cc(COc2ccc(C#N)cc2)nc(-c2ccccn2)n1` has a logD [1] of 2.6 and an IC50 [2] of 31600 nM.
Work on `CC1(C)CN(c2cc(COc3ccc(F)c(F)c3F)nc(-c3ccccn3)n2)C1` yielded a logD [1] of 4.3 and an IC50 [2] of 25.1 nM.
`Cc1cc(COc2cc(F)cc(F)c2F)nc(-c2ccccn2)n1` gave a logD [1] of 3.4 and an IC50 [2] of 501 nM.
Work on `CCOc1cc(COc2cccc(F)c2)nc(-c2ccccn2)n1` yielded a logD [1] of 4.1 and an IC50 [2] of 251 nM.
Work on `COc1cc(COc2cccc(F)c2)nc(-c2ccccn2)n1` yielded a logD [1] of 3.6 and an IC50 [2] of 1260 nM.
